Columns and labels:
Assay type in all cases: in vivo
Conditions in all cases: treatment dosage 320 g/ha
directly sown rice [1] = assay: Test Example 4: foliar treatment, effect on crop; b: directly sown rice
Method in brief: (§1)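 Seeds are spot-sown into sterilized diluvial soil and covered with about 1.5 cm of soil. After 14 days' greenhouse growth at 25 to 30° C, plants are sprayed on stems and leaves with diluted emulsion at the stated g/ha rate, then scored at 3 weeks.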

chickweed [2] = assay: Test Example 3: weedkilling efficacy through soil treatment; N: chickweed
Method in brief: (§2)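 Crop and weed responses were judged three weeks after a uniform surface spray of the water-diluted emulsion at the given g/ha rate. Seeds sat beneath about 1.5 cm of sterilized diluvial soil, and boxes stood in a greenhouse at 25 to 30° C.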

birds-eye speedwell [3] = assay: Test Example 3: weedkilling efficacy through soil treatment; p: birds-eye speedwell
Method in brief: as §2

transplanted rice = assay: Test Example 1: preemergent weed treatment in the submerged state, effect on crop; a: transplanted rice
Method in brief: (§3)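 Pre-emergence application onto floodwater (4 cm, alluvial soil) on the day of sowing, dose expressed as g/ha from diluted emulsion formulation. Weeds sown with 2.5-leaf transplanted rice as crop; plants held at 25–30 °C in greenhouse and scored against assessment criteria after 3 weeks.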

barnyard grass [4] = assay: Test Example 2: weedkilling efficacy, growth period weed treatment in the submerged state; A: barnyard grass
Method in brief: (§4)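 Weeds treated at the 1-2 leaf stage by application of diluted emulsion onto floodwater (4 cm depth, alluvial soil) at specified g/ha. Grown in greenhouse at 25 to 30° C; herbicidal effect rated three weeks after treatment.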

birds-eye speedwell [5] = assay: Test Example 4: weedkilling efficacy by foliar treatment; p: birds-eye speedwell
Method in brief: as §1

rapeseed [6] = assay: Test Example 3: soil treatment, effect on crop; g: rapeseed
Method in brief: as §2

oval-leafed pondweed [7] = assay: Test Example 1: weedkilling efficacy, preemergent weed treatment in the submerged state; C: oval-leafed pondweed
Method in brief: as §3

barnyard grass [8] = assay: Test Example 3: weedkilling efficacy through soil treatment; F: barnyard grass
Method in brief: as §2

barnyard grass [9] = assay: Test Example 4: weedkilling efficacy by foliar treatment; F: barnyard grass
Method in brief: as §1

catchweed [10] = assay: Test Example 4: weedkilling efficacy by foliar treatment; O: catchweed
Method in brief: as §1

corn [11] = assay: Test Example 3: soil treatment, effect on crop; c: corn
Method in brief: as §2

crabgrass [12] = assay: Test Example 3: weedkilling efficacy through soil treatment; D: crabgrass
Method in brief: as §2

Indian mallow [13] = assay: Test Example 3: weedkilling efficacy through soil treatment; K: Indian mallow
Method in brief: as §2

fig-leafed goosefoot [14] = assay: Test Example 3: weedkilling efficacy through soil treatment; M: fig-leafed goosefoot
Method in brief: as §2

beet [15] = assay: Test Example 4: foliar treatment, effect on crop; f: beet
Method in brief: as §1

bulrush = assay: Test Example 1: weedkilling efficacy, preemergent weed treatment in the submerged state; B: bulrush
Method in brief: as §3

oval-leafed pondweed [16] = assay: Test Example 2: weedkilling efficacy, growth period weed treatment in the submerged state; C: oval-leafed pondweed
Method in brief: as §4

black-grass [17] = assay: Test Example 4: weedkilling efficacy by foliar treatment; H: black-grass
Method in brief: as §1

wheat [18] = assay: Test Example 4: foliar treatment, effect on crop; e: wheat
Method in brief: as §1

wild oat [19] = assay: Test Example 4: weedkilling efficacy by foliar treatment; G: wild oat
Method in brief: as §1

black-grass [20] = assay: Test Example 3: weedkilling efficacy through soil treatment; H: black-grass
Method in brief: as §2

wheat [21] = assay: Test Example 3: soil treatment, effect on crop; e: wheat
Method in brief: as §2

green foxtail [22] = assay: Test Example 4: weedkilling efficacy by foliar treatment; E: green foxtail
Method in brief: as §1

chickweed [23] = assay: Test Example 4: weedkilling efficacy by foliar treatment; N: chickweed
Method in brief: as §1

Italian ryegrass [24] = assay: Test Example 4: weedkilling efficacy by foliar treatment; I: Italian ryegrass
Method in brief: as §1

soybean [25] = assay: Test Example 3: soil treatment, effect on crop; d: soybean
Method in brief: as §2

corn [26] = assay: Test Example 4: foliar treatment, effect on crop; c: corn
Method in brief: as §1

beet [27] = assay: Test Example 3: soil treatment, effect on crop; f: beet
Method in brief: as §2

soybean [28] = assay: Test Example 4: foliar treatment, effect on crop; d: soybean
Method in brief: as §1

barnyard grass [29] = assay: Test Example 1: weedkilling efficacy, preemergent weed treatment in the submerged state; A: barnyard grass
Method in brief: as §3

directly sown rice [30] = assay: Test Example 3: soil treatment, effect on crop; b: directly sown rice
Method in brief: as §2

green foxtail [31] = assay: Test Example 3: weedkilling efficacy through soil treatment; E: green foxtail
Method in brief: as §2

crabgrass [32] = assay: Test Example 4: weedkilling efficacy by foliar treatment; D: crabgrass
Method in brief: as §1

catchweed [33] = assay: Test Example 3: weedkilling efficacy through soil treatment; O: catchweed
Method in brief: as §2

common wind-grass [34] = assay: Test Example 3: weedkilling efficacy through soil treatment; J: common wind-grass
Method in brief: as §2

common wind-grass [35] = assay: Test Example 4: weedkilling efficacy by foliar treatment; J: common wind-grass
Method in brief: as §1

rapeseed [36] = assay: Test Example 4: foliar treatment, effect on crop; g: rapeseed
Method in brief: as §1

redroot pigweed [37] = assay: Test Example 3: weedkilling efficacy through soil treatment; L: redroot pigweed
Method in brief: as §2

wild oat [38] = assay: Test Example 3: weedkilling efficacy through soil treatment; G: wild oat
Method in brief: as §2

redroot pigweed [39] = assay: Test Example 4: weedkilling efficacy by foliar treatment; L: redroot pigweed
Method in brief: as §1

Indian mallow [40] = assay: Test Example 4: weedkilling efficacy by foliar treatment; K: Indian mallow
Method in brief: as §1

Italian ryegrass [41] = assay: Test Example 3: weedkilling efficacy through soil treatment; I: Italian ryegrass
Method in brief: as §2

fig-leafed goosefoot [42] = assay: Test Example 4: weedkilling efficacy by foliar treatment; M: fig-leafed goosefoot
Method in brief: as §1

CC1=C(c2ccccc2)C(=O)N(C(C)(C)C(=O)Nc2ccc3ccccc3n2)CO1 [B-1-18]
b (directly sown rice) effect on crop grade (directly sown rice [1]): 0 (weed kill ratio 5% or less (practically no effect)) | N (chickweed) weedkilling efficacy grade (chickweed [2]): 0 (weed kill ratio 5% or less (practically no effect)) | P (birds-eye speedwell) weedkilling efficacy grade (birds-eye speedwell [3]): 0 (weed kill ratio 5% or less (practically no effect)) | a (transplanted rice) effect on crop grade (transplanted rice): 0 (weed kill ratio 5% or less (practically no effect)) | A (barnyard grass) weedkilling efficacy grade (barnyard grass [4]): 4 (weed kill ratio 70% or more, less than 90%) | P (birds-eye speedwell) weedkilling efficacy grade (birds-eye speedwell [5]): 4 (weed kill ratio 70% or more, less than 90%) | g (rapeseed) effect on crop grade (rapeseed [6]): 0 (weed kill ratio 5% or less (practically no effect)) | C (oval-leafed pondweed) weedkilling efficacy grade (oval-leafed pondweed [7]): 5 (weed kill ratio 90% or more, (practically complete withering)) | F (barnyard grass) weedkilling efficacy grade (barnyard grass [8]): 1 (weed kill ratio 5% or more, less than 20%) | F (barnyard grass) weedkilling efficacy grade (barnyard grass [9]): 2 (weed kill ratio 20% or more, less than 40%) | O (catchweed) weedkilling efficacy grade (catchweed [10]): 4 (weed kill ratio 70% or more, less than 90%) | c (corn) effect on crop grade (corn [11]): 0 (weed kill ratio 5% or less (practically no effect)) | D (crabgrass) weedkilling efficacy grade (crabgrass [12]): 3 (weed kill ratio 40% or more, less than 70%) | K (Indian mallow) weedkilling efficacy grade (Indian mallow [13]): 0 (weed kill ratio 5% or less (practically no effect)) | M (fig-leafed goosefoot) weedkilling efficacy grade (fig-leafed goosefoot [14]): 0 (weed kill ratio 5% or less (practically no effect)) | f (beet) effect on crop grade (beet [15]): 0 (weed kill ratio 5% or less (practically no effect)) | B (bulrush) weedkilling efficacy grade (bulrush): 5 (weed kill ratio 90% or more, (practically complete withering)) | C (oval-leafed pondweed) weedkilling efficacy grade (oval-leafed pondweed [16]): 5 (weed kill ratio 90% or more, (practically complete withering)) | H (black-grass) weedkilling efficacy grade (black-grass [17]): 1 (weed kill ratio 5% or more, less than 20%) | e (wheat) effect on crop grade (wheat [18]): 0 (weed kill ratio 5% or less (practically no effect)) | G (wild oat) weedkilling efficacy grade (wild oat [19]): 0 (weed kill ratio 5% or less (practically no effect)) | H (black-grass) weedkilling efficacy grade (black-grass [20]): 2 (weed kill ratio 20% or more, less than 40%) | e (wheat) effect on crop grade (wheat [21]): 0 (weed kill ratio 5% or less (practically no effect)) | E (green foxtail) weedkilling efficacy grade (green foxtail [22]): 3 (weed kill ratio 40% or more, less than 70%) | N (chickweed) weedkilling efficacy grade (chickweed [23]): 3 (weed kill ratio 40% or more, less than 70%) | I (Italian ryegrass) weedkilling efficacy grade (Italian ryegrass [24]): 1 (weed kill ratio 5% or more, less than 20%) | d (soybean) effect on crop grade (soybean [25]): 0 (weed kill ratio 5% or less (practically no effect)) | c (corn) effect on crop grade (corn [26]): 1 (weed kill ratio 5% or more, less than 20%) | f (beet) effect on crop grade (beet [27]): 0 (weed kill ratio 5% or less (practically no effect)) | d (soybean) effect on crop grade (soybean [28]): 0 (weed kill ratio 5% or less (practically no effect)) | A (barnyard grass) weedkilling efficacy grade (barnyard grass [29]): 5 (weed kill ratio 90% or more, (practically complete withering)) | b (directly sown rice) effect on crop grade (directly sown rice [30]): 0 (weed kill ratio 5% or less (practically no effect)) | E (green foxtail) weedkilling efficacy grade (green foxtail [31]): 4 (weed kill ratio 70% or more, less than 90%) | D (crabgrass) weedkilling efficacy grade (crabgrass [32]): 2 (weed kill ratio 20% or more, less than 40%) | O (catchweed) weedkilling efficacy grade (catchweed [33]): 0 (weed kill ratio 5% or less (practically no effect)) | J (common wind-grass) weedkilling efficacy grade (common wind-grass [34]): 5 (weed kill ratio 90% or more, (practically complete withering)) | J (common wind-grass) weedkilling efficacy grade (common wind-grass [35]): 3 (weed kill ratio 40% or more, less than 70%) | g (rapeseed) effect on crop grade (rapeseed [36]): 3 (weed kill ratio 40% or more, less than 70%) | L (redroot pigweed) weedkilling efficacy grade (redroot pigweed [37]): 0 (weed kill ratio 5% or less (practically no effect)) | G (wild oat) weedkilling efficacy grade (wild oat [38]): 0 (weed kill ratio 5% or less (practically no effect)) | L (redroot pigweed) weedkilling efficacy grade (redroot pigweed [39]): 2 (weed kill ratio 20% or more, less than 40%) | K (Indian mallow) weedkilling efficacy grade (Indian mallow [40]): 3 (weed kill ratio 40% or more, less than 70%) | I (Italian ryegrass) weedkilling efficacy grade (Italian ryegrass [41]): 2 (weed kill ratio 20% or more, less than 40%) | M (fig-leafed goosefoot) weedkilling efficacy grade (fig-leafed goosefoot [42]): 3 (weed kill ratio 40% or more, less than 70%)

— patent US9738634B2, “Heterocyclic amide compound and herbicide” (SYNGENTA PARTICIPATIONS AG, priority 2013, dated 2017)
